Measurements taken from patent publication US20210323914A1, “IONIZABLE CATIONIC LIPID FOR RNA DELIVERY” (Arcturus Therapeutics, Inc., priority 2017, published 2021).

Columns and labels:
[1] = Measured pKa of cationic lipids in LNP or micellar formulations by TNS fluorescence; format: physicochemical; details: for pKa: measured in the Formulation milieu, TNS fluorescence, 1 mM total lipids; for Δ measured pKa vs ATX-0002: change on shortening the ester
Method: pKa of cationic lipids in LNP or micellar Formulations were measured by the procedure of Jayaraman, 2012, Angew. Chem. Int. Ed., 51:8529-33, hereby incorporated by reference. Lipid micelles or LNPs are diluted to 1 mM total lipids in universal buffer with a pH range between 3 and 12 in presence of 0.06 mg/mL 6-(p-toluidino)-2-naphthalenesulfonic acid sodium salt (TNS) reagent (Sigma Aldrich), a pH sensitive fluorescence probe. The anionic TNS molecule fluoresces when associated with the surface of positively charged membranes but is not fluorescent when free in solution, allowing measurement of pKa. The TNS signal is measured on a spectral plate reader. The TNS signal is plotted as function of the pH and analyzed using a non-linear (Boltzman) to determine the pKa.
Reagents used in the assay include • Hepes free acid, CAS: 7365-45-9 (VWR, 0511-1KG or equivalent) • MES, HPLC grade: (Sigma 105228-100G or equivalent) • Ammonium acetate, HPLC grade: (Sigma 90335-100 mL or equivalent) • Sodium chloride, HPLC grade (VWR EM-MX0475-1 or equivalent) • TNS (Sigma-Aldrich T9792-250 mg or equivalent) • Hydrochloric acid • DMSO • DPBS without calcium and magnesium (GE, SH30028.02 or equivalent) • H2O, HPLC grade (OmniSolv, WX0004-1 or equivalent)
To prepare a stock solution of Universal Buffer (UB) in a polystyrene sterile storage bottle, prepare 1 L using the following table.
Reagents are sterile filtered through a 0.2 μm filter. Preparation of UB solution includes adding 5 mL of 1 M HCl to a 350 mL stock solution.
To prepare a pH ladder, centrifuge tubes (50 mL) with 20 mL UB buffer are used. (pH ˜3) and differing amounts of 2 N NaOH. Stock solutions of TNS at 1 mg/mL in DMSO. 60 μL of TNS at 1 mg/mL is added to 940 μL water to reach a working solution concentration of 0.06 mg/mL. Five test samples, 1 mL of LNP sample in PBS at 1 mM total lipid, and 1 reference sample are analyzed per plate. Samples at different pH values are prepared in wells in which 25 μL of 0.06 mg/mL TNS is added. 15 μL of test samples is added per well. The microplate is incubated for 15 minutes at room temperature in the dark. TNS template can be used to format data from the plate reader. Perform non-linear (Boltzman) regression analysis of the samples in Origin Pro 8 or equivalent software.

[2] = test system: Factor VII; test: In vivo mouse Factor VII siRNA knockdown with lipid nanoparticles; design: species or system C57BL/6 mice; details: intravenous, mice, 48 hours
Description: The first pair of numbers denotes the number of carbons in the ester, including the carbonyl, for L1 and L2; the pair of numbers in the parenthesis denotes the number of carbons in each branch of the branched alkyl, R1 or if R2 is also branched, R1/R2 (an asterisk denotes a double bond); the number of carbons in R3 is given; and the last line denotes the substitution for R4 and R5. The ATX number is given for reference herein. Calculated Log D values (c-Log D) and calculated pKa (c-pKa) values are given, as well as measured pKa in parenthesis (measured in the Formulation milieu). The c-Log D and c-pKa values are generated by ACD Labs Structure Designer v12.0. Bioactivity is percentage in vivo Factor VII knockdown at a dose of 0.03 mg/kg, unless otherwise designated.
Using a liver-directed in vivo screen of the liposome libraries, a series of compounds were tested that facilitate high levels of siRNA mediated gene silencing in hepatocytes, the cells comprising the liver parenchyma. Factor VII, a blood-clotting factor, is a suitable target gene for assaying functional siRNA delivery to liver. Because this factor is produced specifically in hepatocytes, gene silencing indicates successful delivery to parenchyma, as opposed to delivery to the cells of the reticulo-endothelial system (e.g., Kupffer cells). Furthermore, Factor VII is a secreted protein that can be readily measured in serum, obviating the need to euthanize animals. Silencing at the mRNA level can be readily determined by measuring levels of protein. This is because the protein's short half-life (2-5 hour). Compositions with siRNA directed to […] were Formulated with the lipid, and comparator sample phosphate-buffered saline (PBS). Female C57BL/6 mice (6-8 week old) were used for FVII siRNA knockdown (KD) experiments.
All Formulations were administered intravenously via tail vein injection at a dose of 0.03 and 0.1 mg/kg at a dosing volume of […]. Terminal blood collection was performed via cardiac puncture under 2% isoflurane at 48 hours after Formulation injections. Blood was collected into 0.109 M citrate buffer tube and processed by centrifugation at 1200 G for 10 min. Plasma was collected and Factor VII protein levels were analyzed by chromogenic assay (Biophen FVII, Aniara Corporation). A standard curve was constructed using samples from PBS-injected mice and relative Factor VII expression was determined by comparing treated groups to untreated PBS control.

| SMILES | pKa [1] | Bioactivity: percentage in vivo Factor VII knockdown ([2]; dose 0.03 mg/kg) | Bioactivity: percentage in vivo Factor VII knockdown ([2]; dose 0.1 mg/kg) | Δ measured pKa vs ATX-0002 [1] | Factor VII knockdown activity compared with ATX-002 (FIG. 18) ([2]; both at 0.03 and 0.1 mg/kg) |
| --- | --- | --- | --- | --- | --- |
| CCCCCC(CCCCC)OC(=O)CN(CC(=O)OC(CCCCC)CCCCC)C(=O)SCCCN(CC)CC | 6.21 | – | – | – | – |
| CCCCCC/C=C\COC(=O)CN(CC(=O)OC(CCCCCCC)CCCCCCC)C(=O)SCCCN(C)C | 6.44 | 62 percentage | – | – | – |
| CCCCCCCC(CCCCCCC)OC(=O)CN(CC(=O)OC(CCCCCCC)CCCCCCC)C(=O)SCCCN(C)C | 5.68 | 25 percentage | – | – | – |
| CCCCCC/C=C\COC(=O)CN(CC(=O)OC(CCCCCCCC)CCCCCCCC)C(=O)SCCCN(C)C | 6.38 | 97 percentage | – | – | – |
| CCCCCC/C=C\COC(=O)CN(CC(=O)OC(CCCCCCCC)CCCCCCCC)C(=O)SCCCN(CC)CC | 6.2 | 82 percentage | – | – | – |
| CCCCCC/C=C\COC(=O)CN(CC(=O)OC(CCCCCCCC)CCCCCCCC)C(=O)SCCCCN(C)C | 6.69 | 90 percentage | – | – | – |
| CCCCCC/C=C\COC(=O)CN(CC(=O)OC(CCCCCCCC)CCCCCCCC)C(=O)SCCCCN(CC)CC | 6.9 | 97 percentage | – | – | – |
| CCCCCC/C=C\COC(=O)CCCN(CC(=O)OC(CCCCCCC)CCCCCCC)C(=O)SCCN(C)C | 5.83 | 40 percentage | – | – | – |
| CCCCCC/C=C\COC(=O)CCCN(CC(=O)OC(CCCCCCC)CCCCCCC)C(=O)SCCCN(C)C | 6.85 | 53 percentage | – | – | – |
| CCCCCC/C=C\COC(=O)CCCN(CC(=O)OC(CCCCCCC)CCCCCCC)C(=O)SCCCN(CC)CC | 6.53 | 70 percentage | – | – | – |
| CCC/C=C/CCC(CC/C=C/CCC)OC(=O)CCCN(CCCC(=O)OC/C=C\CCCCCC)C(=O)SCCN(C)C | 6 | 72 percentage | – | – | – |
| CCCCCC/C=C\COC(=O)CCCN(CCCC(=O)OC(CCCCCCC)CCCCCCC)C(=O)SCCCN(CC)CC | 6.66 | 96 percentage | – | – | – |
| CCCCCC/C=C\COC(=O)CCCN(CCCC(=O)OC(CCCCCCC)CCCCCCCC)C(=O)SCCCN(CC)CC (stereo not drawn) | 6.65 | 93 percentage | – | – | – |
| CCCCCC/C=C\COC(=O)CCCN(CCCC(=O)OC(CCCCCCCC)CCCCCCCC)C(=O)SCCCN(CC)CC | 6.58 | 75 percentage | – | – | – |
| CCCCCC(CCCCC)OC(=O)CCCN(CCCC(=O)OC(CCCCC)CCCCC)C(=O)SCCCN(C)C | 6.8 | – | 14 (0.1 mg/ kg) percentage | – | – |
| CCCCCC(CCCCC)OC(=O)CCCN(CCCC(=O)OC(CCCCC)CCCCC)C(=O)SCCCN(CC)CC | 5.56 | – | 27 (0.1 mg/ kg) percentage | – | – |
| CCCCCCCC(CCCCCCC)OC(=O)CCCN(CCCC(=O)OC(CCCCCCC)CCCCCCC)C(=O)SCCCN(C)C | 6.38 | 99 percentage | – | – | – |
| CCCCCCCC(CCCCCCC)OC(=O)CCCN(CCCC(=O)OC(CCCCCCC)CCCCCCC)C(=O)SCCCN(CC)CC | 6.31 | 97 percentage | – | – | – |

| SMILES | pKa [1] | Bioactivity: percentage in vivo Factor VII knockdown ([2]; dose 0.03 mg/kg) | Bioactivity: percentage in vivo Factor VII knockdown ([2]; dose 0.1 mg/kg) | Δ measured pKa vs ATX-0002 [1] | Factor VII knockdown activity compared with ATX-002 (FIG. 18) ([2]; both at 0.03 and 0.1 mg/kg) |
| --- | --- | --- | --- | --- | --- |
| CCC/C=C/CCC(CC/C=C/CCC)OC(=O)CCCN(CCCCCC(=O)OC/C=C\CCCCCC)C(=O)SCCN(C)C | 5.93 | 75 percentage | – | – | – |
| CCCCCC/C=C\COC(=O)CCCCCN(CCCC(=O)OC(CCCCCCCC)CCCCCCCC)C(=O)SCCN(C)C | 5.38 | 81 percentage | – | – | – |
| CCCCCC/C=C\COC(=O)CCCCCN(CCCCC(=O)OC(CCCCCCC)CCCCCCC)C(=O)SCCN(C)C | 5.9 | 90 percentage | – | – | – |
| CCCCCC/C=C\COC(=O)CCCCCCCN(CCCC(=O)OC(CCCCCC)CCCCCC)C(=O)SCCN(C)C | 5.61 | 63 percentage | – | – | – |
| CCCCCC/C=C\COC(=O)CCCCCCCN(CCCC(=O)OC(CCCCCCC)CCCCCCC)C(=O)SCCN(C)C | 5.38 | 73 percentage | – | – | – |
| CCCCCC/C=C\COC(=O)CCCCCN(CCCCCC(=O)OC(CCCCCCC)CCCCCCC)C(=O)SCCN(C)C | 5.93 | 91 percentage | – | – | – |
| CCC/C=C/CCC(CC/C=C/CCC)OC(=O)CCCCCN(CCCCCC(=O)OC/C=C\CCCCCC)C(=O)SCCN(C)C | 5.94 | 82 percentage | – | – | – |
| CCCCCC/C=C\COC(=O)CCCCCN(CCCCCC(=O)OC(CCCCCCCC)CCCCCCCC)C(=O)SCCN(C)C | 5.82 | 85 percentage | – | – | – |
| CCCCCC/C=C\COC(=O)CCCCCN(CCCCCC(=O)OC(CCCCCCC)CCCCCCC)C(=O)SCCCN(CC)CC | 6.45 | 95 percentage | – | – | – |
| CCCCCC/C=C\COC(=O)CCCCCCN(CCCCCCC(=O)OC(CCCCCC)CCCCCC)C(=O)SCCN(C)C | 5.67 | 66 percentage | – | – | – |
| CCC/C=C/CCC(CC/C=C/CCC)OC(=O)CCCCCCN(CCCCCCC(=O)OC/C=C\CCCCCC)C(=O)SCCN(C)C | 5.68 | 67 percentage | – | – | – |
| CCCCCC/C=C\COC(=O)CCCCCCCN(CCCCCCCC(=O)OC(CCCC)CCCC)C(=O)SCCN(C)C | 6.22 | 71 percentage | – | – | – |
| CCCCCC/C=C\COC(=O)CCCCCCCN(CCCCCCCC(=O)OC(CCCCC)CCCCC)C(=O)SCCN(C)C | 5.81 | 68 percentage | – | – | – |
| CCCCCC/C=C\COC(=O)CCCN(CCCC(=O)OC(CCCCCC)CCCCCCC)C(=O)SCCN(C)C (stereo not drawn) [ATX-0058] | 5.95 | 86 percentage | – | no impact | substantially more effective than ATX-002 |
| CCCCCC/C=C\COC(=O)CN(CC(=O)OC(CCCCCCCC)CCCCCCCC)C(=O)SCCN(C)C [ATX-0061] | 5.13 | 0 percentage | – | −0.90 | – |
| CCCCCC/C=C\COC(=O)CN(CC(=O)OC(CCCCC)CCCCC)C(=O)SCCN(C)C [ATX-0063] | 5.39 | 0 percentage | – | −0.7 | – |
| CCCCCC/C=C\COC(=O)CN(CC(=O)OC(CCCCCCC)CCCCCCCC)C(=O)SCCN(C)C (stereo not drawn) [ATX-0064] | 5.14 | 0 percentage | – | −0.90 | – |
| CCCCCCC(CCCCC)OC(=O)CCCN(CCCCC(=O)OC(CCCCC)CCCCC)C(=O)SCCN(C)C (stereo not drawn) [ATX-0085] | – | 56 percentage | – | – | – |
